Results: PMC8550792, “Evolution of kinase polypharmacology across HSP90 drug discovery” (Cell Chemical Biology, 2021)

Key:
Experiment in all cases: biochemical
Format in all cases: biochemical
382 unique human kinases [1] = target: T1, 382 unique human kinases (Homo sapiens, UniProt O43781); details: DYRK3, 10 uM; for remaining activity at 10 µM: read-out: % Enzyme Activity (relative to DMSO controls)
T1 construct: purchased Reaction Biology (HotSpot contract assay)
T1 sequence (O43781 1-588): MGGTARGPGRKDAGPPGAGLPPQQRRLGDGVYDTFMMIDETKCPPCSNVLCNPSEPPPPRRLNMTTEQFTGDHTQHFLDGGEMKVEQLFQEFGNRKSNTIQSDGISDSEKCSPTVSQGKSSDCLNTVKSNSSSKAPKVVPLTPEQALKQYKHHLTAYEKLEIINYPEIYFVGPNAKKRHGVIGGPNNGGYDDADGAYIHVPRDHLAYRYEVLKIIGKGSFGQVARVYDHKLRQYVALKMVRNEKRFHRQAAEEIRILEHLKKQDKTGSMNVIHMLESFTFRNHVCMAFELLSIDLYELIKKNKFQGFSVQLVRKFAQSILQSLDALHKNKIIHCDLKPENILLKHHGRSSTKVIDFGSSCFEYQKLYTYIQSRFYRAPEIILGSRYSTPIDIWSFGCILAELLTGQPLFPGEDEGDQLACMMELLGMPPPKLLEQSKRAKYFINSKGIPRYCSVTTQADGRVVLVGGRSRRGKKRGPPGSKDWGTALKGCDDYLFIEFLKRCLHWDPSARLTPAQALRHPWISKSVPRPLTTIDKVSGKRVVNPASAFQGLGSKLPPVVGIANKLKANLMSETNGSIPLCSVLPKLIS

382 unique human kinases [2] = target: T2, 382 unique human kinases (Homo sapiens, UniProt P00533, A750P/DEL747-749); details: EGFR (d747-749/A750P), 10 uM; for remaining activity at 10 µM: read-out: % Enzyme Activity (relative to DMSO controls)
T2 construct: purchased Reaction Biology (HotSpot contract assay)

382 unique human kinases [3] = target: T3, 382 unique human kinases (Homo sapiens, UniProt Q00537); details: kinase CDK17/cyclin Y (PCTK2), compound 10 uM; for remaining activity at 10 µM: read-out: % Enzyme Activity (relative to DMSO controls)
T3 construct: purchased Reaction Biology (HotSpot contract assay)

382 unique human kinases [4] = target: T4, 382 unique human kinases (Homo sapiens, UniProt Q04771); details: ALK2/ACVR1, compound at 10 uM, duplicate values; for remaining activity at 10 µM: read-out: % Enzyme Activity (relative to DMSO controls)
T4 construct: purchased Reaction Biology (HotSpot contract assay)
T4 sequence (Q04771 21-509): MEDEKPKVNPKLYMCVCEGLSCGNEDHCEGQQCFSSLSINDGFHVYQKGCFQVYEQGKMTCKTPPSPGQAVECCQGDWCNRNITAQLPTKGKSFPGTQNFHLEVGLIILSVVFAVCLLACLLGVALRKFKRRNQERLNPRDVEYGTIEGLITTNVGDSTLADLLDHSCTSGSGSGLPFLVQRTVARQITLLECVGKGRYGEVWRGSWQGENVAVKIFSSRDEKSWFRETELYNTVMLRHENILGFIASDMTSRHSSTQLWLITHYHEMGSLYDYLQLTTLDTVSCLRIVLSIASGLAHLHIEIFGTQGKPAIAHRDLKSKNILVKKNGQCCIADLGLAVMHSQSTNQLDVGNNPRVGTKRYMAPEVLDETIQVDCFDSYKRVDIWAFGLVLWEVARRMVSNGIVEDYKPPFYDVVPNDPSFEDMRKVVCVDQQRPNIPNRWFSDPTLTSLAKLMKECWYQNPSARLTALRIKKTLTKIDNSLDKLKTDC

382 unique human kinases [5] = target: T5, 382 unique human kinases (Homo sapiens, UniProt Q9HBH9); details: kinase MNK2, compound 10 uM; for remaining activity at 10 µM: read-out: % Enzyme Activity (relative to DMSO controls)
T5 construct: purchased Reaction Biology (HotSpot contract assay)

382 unique human kinases [6] = target: T6, 382 unique human kinases (Homo sapiens, UniProt P08581, M1250T); details: c-MET (M1250T), 10 uM; for remaining activity at 10 µM: read-out: % Enzyme Activity (relative to DMSO controls)
T6 construct: purchased Reaction Biology (HotSpot contract assay)

382 unique human kinases [7] = target: T7, 382 unique human kinases (Homo sapiens, UniProt P41279); details: COT1/MAP3K8, 10 uM; for remaining activity at 10 µM: read-out: % Enzyme Activity (relative to DMSO controls)
T7 construct: purchased Reaction Biology (HotSpot contract assay)

382 unique human kinases [8] = target: T8, 382 unique human kinases (Homo sapiens, UniProt Q86V86); details: PIM3, [ATP] 20 µM
T8 construct: purchased Reaction Biology (HotSpot contract assay)

382 unique human kinases [9] = target: T9, 382 unique human kinases (Homo sapiens, UniProt Q8IYT8); details: ULK2, 10 uM; for remaining activity at 10 µM: read-out: % Enzyme Activity (relative to DMSO controls)
T9 construct: purchased Reaction Biology (HotSpot contract assay)
T9 sequence (Q8IYT8 1-1036): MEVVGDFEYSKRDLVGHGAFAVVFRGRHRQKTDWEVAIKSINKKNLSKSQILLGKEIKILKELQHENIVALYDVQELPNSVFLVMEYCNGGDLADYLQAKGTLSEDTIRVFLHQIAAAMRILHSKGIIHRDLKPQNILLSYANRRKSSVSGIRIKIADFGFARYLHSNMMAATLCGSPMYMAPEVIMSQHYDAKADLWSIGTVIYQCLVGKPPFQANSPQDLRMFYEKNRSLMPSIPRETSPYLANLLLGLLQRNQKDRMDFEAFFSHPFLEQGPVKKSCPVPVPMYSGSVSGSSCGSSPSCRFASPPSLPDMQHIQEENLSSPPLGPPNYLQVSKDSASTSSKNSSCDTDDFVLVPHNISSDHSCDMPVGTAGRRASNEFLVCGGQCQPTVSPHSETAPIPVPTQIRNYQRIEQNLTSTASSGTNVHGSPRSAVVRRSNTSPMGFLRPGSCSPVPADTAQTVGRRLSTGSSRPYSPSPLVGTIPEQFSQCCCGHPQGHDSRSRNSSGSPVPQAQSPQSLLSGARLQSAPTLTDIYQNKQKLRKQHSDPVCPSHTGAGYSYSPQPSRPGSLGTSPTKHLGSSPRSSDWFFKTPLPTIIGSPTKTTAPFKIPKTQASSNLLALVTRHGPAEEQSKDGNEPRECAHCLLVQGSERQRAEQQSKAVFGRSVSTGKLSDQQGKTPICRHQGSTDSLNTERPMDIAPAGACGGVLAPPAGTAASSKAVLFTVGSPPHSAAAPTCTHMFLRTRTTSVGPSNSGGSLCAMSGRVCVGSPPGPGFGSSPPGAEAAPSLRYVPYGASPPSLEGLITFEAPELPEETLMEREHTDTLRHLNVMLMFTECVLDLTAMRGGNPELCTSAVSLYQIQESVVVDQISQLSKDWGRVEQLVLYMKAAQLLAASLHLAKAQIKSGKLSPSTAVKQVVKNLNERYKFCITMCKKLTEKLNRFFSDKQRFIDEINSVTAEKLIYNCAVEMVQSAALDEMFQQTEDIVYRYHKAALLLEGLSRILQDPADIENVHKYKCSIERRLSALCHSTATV

382 unique human kinases [10] = target: T10, 382 unique human kinases (Homo sapiens, UniProt Q9UM73, T1151M); details: ALK (T1151M), [ATP] 50 µM, compound 10 uM; for remaining activity at 10 µM: read-out: % Enzyme Activity (relative to DMSO controls)
T10 construct: purchased Reaction Biology (HotSpot contract assay)

[11] = compound 10 uM, read-out: % Enzyme Activity (relative to DMSO controls)

T10 sequence (Q9UM73 19-1620 T1151M): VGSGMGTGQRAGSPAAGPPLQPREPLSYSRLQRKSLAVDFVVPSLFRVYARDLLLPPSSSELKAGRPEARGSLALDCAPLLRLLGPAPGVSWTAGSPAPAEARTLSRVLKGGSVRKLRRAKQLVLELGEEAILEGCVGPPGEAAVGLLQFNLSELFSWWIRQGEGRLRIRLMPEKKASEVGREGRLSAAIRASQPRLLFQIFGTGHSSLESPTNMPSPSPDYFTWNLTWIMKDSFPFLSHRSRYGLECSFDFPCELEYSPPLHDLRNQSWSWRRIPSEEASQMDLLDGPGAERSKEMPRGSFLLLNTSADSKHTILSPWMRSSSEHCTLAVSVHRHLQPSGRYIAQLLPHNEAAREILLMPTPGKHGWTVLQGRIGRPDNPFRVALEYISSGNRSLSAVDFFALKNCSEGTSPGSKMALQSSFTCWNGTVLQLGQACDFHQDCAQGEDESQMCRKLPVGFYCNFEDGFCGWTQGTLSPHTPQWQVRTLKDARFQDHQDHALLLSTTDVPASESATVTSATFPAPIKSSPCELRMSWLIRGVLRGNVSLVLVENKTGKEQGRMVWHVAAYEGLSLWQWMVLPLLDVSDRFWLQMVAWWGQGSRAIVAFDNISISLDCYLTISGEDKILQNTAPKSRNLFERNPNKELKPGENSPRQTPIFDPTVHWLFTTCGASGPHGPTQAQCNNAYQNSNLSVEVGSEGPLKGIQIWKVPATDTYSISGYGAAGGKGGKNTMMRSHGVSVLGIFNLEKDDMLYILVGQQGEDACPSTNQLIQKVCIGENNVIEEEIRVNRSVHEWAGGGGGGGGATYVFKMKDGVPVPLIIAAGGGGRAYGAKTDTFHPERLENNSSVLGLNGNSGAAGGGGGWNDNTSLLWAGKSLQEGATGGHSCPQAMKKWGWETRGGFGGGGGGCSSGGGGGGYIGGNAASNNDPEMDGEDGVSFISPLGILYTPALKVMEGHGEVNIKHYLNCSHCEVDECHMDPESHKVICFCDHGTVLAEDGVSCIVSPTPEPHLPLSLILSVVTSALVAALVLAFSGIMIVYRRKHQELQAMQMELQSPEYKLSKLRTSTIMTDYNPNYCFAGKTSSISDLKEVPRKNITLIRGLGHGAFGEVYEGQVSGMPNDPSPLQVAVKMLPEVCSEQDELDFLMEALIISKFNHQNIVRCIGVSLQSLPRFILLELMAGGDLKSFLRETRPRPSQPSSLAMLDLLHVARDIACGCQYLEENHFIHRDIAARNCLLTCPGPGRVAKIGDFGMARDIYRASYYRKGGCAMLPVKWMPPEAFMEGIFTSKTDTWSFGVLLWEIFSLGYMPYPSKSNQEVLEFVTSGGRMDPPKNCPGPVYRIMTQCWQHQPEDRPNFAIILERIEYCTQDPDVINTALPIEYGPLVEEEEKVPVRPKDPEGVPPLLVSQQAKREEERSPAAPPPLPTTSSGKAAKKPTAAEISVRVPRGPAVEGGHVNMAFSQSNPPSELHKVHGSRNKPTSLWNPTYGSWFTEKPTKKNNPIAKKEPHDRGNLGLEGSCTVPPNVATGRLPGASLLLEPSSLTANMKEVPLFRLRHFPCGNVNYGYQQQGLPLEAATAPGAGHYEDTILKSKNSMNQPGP
T3 sequence (Q00537 whole entry): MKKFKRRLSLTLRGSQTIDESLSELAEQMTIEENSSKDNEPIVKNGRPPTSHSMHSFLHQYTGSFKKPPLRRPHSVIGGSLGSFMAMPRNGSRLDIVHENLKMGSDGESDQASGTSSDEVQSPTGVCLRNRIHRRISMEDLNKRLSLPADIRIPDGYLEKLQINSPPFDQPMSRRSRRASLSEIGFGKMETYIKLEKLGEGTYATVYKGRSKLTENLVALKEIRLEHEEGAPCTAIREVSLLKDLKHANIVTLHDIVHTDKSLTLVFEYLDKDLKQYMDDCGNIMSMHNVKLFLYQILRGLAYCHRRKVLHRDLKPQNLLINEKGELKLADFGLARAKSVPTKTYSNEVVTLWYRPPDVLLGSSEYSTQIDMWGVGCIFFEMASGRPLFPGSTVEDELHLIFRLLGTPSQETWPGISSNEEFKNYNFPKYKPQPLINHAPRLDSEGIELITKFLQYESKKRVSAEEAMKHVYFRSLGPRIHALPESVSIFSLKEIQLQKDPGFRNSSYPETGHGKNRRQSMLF
T5 sequence (Q9HBH9 whole entry): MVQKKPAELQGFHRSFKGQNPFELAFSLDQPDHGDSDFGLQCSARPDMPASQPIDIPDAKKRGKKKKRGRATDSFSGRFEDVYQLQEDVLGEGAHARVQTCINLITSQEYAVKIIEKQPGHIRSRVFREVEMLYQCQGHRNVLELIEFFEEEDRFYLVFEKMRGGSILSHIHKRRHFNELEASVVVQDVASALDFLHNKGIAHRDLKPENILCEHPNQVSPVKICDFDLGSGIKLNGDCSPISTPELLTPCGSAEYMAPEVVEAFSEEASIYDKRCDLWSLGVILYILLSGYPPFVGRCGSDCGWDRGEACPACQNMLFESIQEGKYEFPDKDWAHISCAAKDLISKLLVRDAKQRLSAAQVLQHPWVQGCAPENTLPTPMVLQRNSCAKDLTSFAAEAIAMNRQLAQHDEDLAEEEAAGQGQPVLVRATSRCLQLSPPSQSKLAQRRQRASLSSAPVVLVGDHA
T7 sequence (P41279 whole entry): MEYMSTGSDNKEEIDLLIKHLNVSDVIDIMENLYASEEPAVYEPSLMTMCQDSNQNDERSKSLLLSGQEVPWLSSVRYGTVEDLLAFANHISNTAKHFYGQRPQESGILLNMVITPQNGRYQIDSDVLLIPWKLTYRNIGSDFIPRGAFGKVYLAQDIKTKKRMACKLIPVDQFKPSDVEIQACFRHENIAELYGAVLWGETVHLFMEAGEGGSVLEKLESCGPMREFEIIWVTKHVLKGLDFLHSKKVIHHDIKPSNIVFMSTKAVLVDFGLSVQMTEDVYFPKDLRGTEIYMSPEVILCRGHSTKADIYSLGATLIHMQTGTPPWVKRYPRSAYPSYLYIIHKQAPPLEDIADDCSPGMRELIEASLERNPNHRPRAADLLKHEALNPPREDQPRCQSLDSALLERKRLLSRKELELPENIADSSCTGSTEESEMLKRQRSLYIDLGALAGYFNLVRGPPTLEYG

Structure (SMILES)	remaining activity at 10 µM (382 unique human kinases [1]) [%]	remaining activity at 10 µM (382 unique human kinases [2]) [%]	remaining activity at 10 µM (382 unique human kinases [3]) [%]	remaining activity at 10 µM (382 unique human kinases [4]) [%]	remaining activity at 10 µM (382 unique human kinases [5]) [%]	remaining activity at 10 µM (382 unique human kinases [6]) [%]	remaining activity at 10 µM (382 unique human kinases [7]) [%]	remaining activity at 10 µM (382 unique human kinases [8]; [11]) [%]	remaining activity at 10 µM (382 unique human kinases [9]) [%]	remaining activity at 10 µM (382 unique human kinases [10]) [%]	also measured
CC(C)c1cc(-c2n[nH]c(=O)n2-c2ccc3c(ccn3C)c2)c(O)cc1O [Ganetespib (STA9090)]	67.1	67.9	86.5	125	92	–	–	–	–	–	–
CC(C)c1cc(-c2n[nH]c(=O)n2-c2ccc3c(ccn3C)c2)c(O)cc1O [Ganetespib]	–	–	–	–	–	99.8	116	14.3	107	45.5	remaining activity at 1 µM (382 unique human kinases [8]; compound 1 uM, read-out: % Enzyme Activity (relative to DMSO controls)): 61.1%
CCNC(=O)c1noc(-c2cc(C(C)C)c(O)cc2O)c1-c1ccc(CN2CCOCC2)cc1 [Luminespib (AUY-922)]	94.8	102	80.7	120	105	–	–	–	–	–	% Enzyme Activity (relative to DMSO controls) (382 unique human kinases [1]): 94.13%; % Enzyme Activity (relative to DMSO controls) (382 unique human kinases [2]): 98.51%; % Enzyme Activity (relative to DMSO controls) (382 unique human kinases [3]): 80.06%; % Enzyme Activity (relative to DMSO controls) (382 unique human kinases [4]): 117.92%; % Enzyme Activity (relative to DMSO controls) (382 unique human kinases [5]): 103.84%
CCNC(=O)c1noc(-c2cc(C(C)C)c(O)cc2O)c1-c1ccc(CN2CCOCC2)cc1 [Luminespib]	–	–	–	–	–	113	95.4	97.5	107	99.2	% Enzyme Activity (relative to DMSO controls) (382 unique human kinases [6]): 112.05%; % Enzyme Activity (relative to DMSO controls) (382 unique human kinases [7]): 93.56%; % Enzyme Activity (relative to DMSO controls) (382 unique human kinases [8]; compound 10 uM): 94.11%; % Enzyme Activity (relative to DMSO controls) (382 unique human kinases [9]): 104.48%; % Enzyme Activity (relative to DMSO controls) (382 unique human kinases [10]): 99.07%
